According to patent publication US10864200B2, “Stable formulations for immune-modulatory macrolides” (Roche Diagnostics Operations, Inc., priority 2017, dated 2020):
“And” between values parts separate entries of the source, which are not always exact repeats. Identical values can stand only once. Like-named read-outs stand apart in the source and are kept apart here.

What was measured:
[1] = Real-time stability (RTS) of sirolimus and tacrolimus in chlorhexidine-containing cell-free blood hemolysate, LC-MS/MS; format: physicochemical; conditions: for real-time stability demonstrated: 6° C., chlorhexidine-containing hemolysate formulation; for area-ratio (analyte / internal standard): hemolysate with 0.024% chlorhexidine
Description: (§1) A formulation was prepared by firstly hemolyzing human whole blood: Human EDTA whole blood of 5 donors was hemolyzed by a freeze-and-thaw cycle. After freezing the whole blood sample from each donor separately at −80° C. and thawing at room temperature, all samples were combined, mixed on a roller for at least 1 hour and then centrifuged for 15 minutes at 22° C. and 12000 g in order to remove fragments of hemolyzed blood cells potentially present. After the centrifugation, the upper section (approximately ⅘ of the whole volume) of the hemolyzed blood was used as hemolysate. Finally, chlorhexidine was added to the hemolysate to a concentration of 0.024%.
For checking the RTS, the chlorhexidine-containing hemolysate was spiked from a highly concentrated stock solution of sirolimus to approx. 100 ng/mL or tacrolimus to approx. 135 ng/mL, and aliquots thereof were stressed at 6° C. for 3 months respectively in brown LC-MS vials. The stressed samples and the corresponding non-stressed samples (T0 samples) were stored at 6° C. for a couple of days until their LC-MS/MS analysis.
LC-MS/MS method: Before performing the LC-MS/MS analysis the samples were prepared by addition of 10 μL structurally similar internal standards (everolimus D4 2×C13 for sirolimus and non-labeled ascomycin for tacrolimus) to 100 μL of the sample to be analyzed, followed by a protein precipitation by addition of 150 μL acetonitrile. The mixture was incubated at 4° C. for 60 minutes and then centrifuged (18000 g, 4° C., 30 min). The supernatant was 1:4 diluted with a solvent mixture of 30% acetonitrile and 70% deionized water and then injected in the LC-MS/MS. The recovery value was the found area-ratio at time point (T1) compared to the non-stressed area-ratio at start time point (T0) as reference (see table 5). Formulations with recoveries >90% were classified as stable and with 80-90% as acceptable.
LC-MS/MS conditions were • Solvents: A: 5 mM NH4Acetate in H2O+0.1% Formic acid/ • B: Methanol+0.1% Formic acid • Gradient: according to Table 4. • AB Sciex Triple Quad 6500+/Agilent HPLC 1290-Infinity II • ESI source • Column: Phenomenex—Kinetex F5, 2.6 μm particle, 50 mm×2.1 mm • Temperature: 40° C. (Column) and 8° C. (Autosampler) • Injection volume 20 μL • MRM Transition at DP: 70 V EP: 10 V CXP: 12 V • Detection: everolimus: Q1: 975.7 Da Q3: 908.7 Da CE 25 V • everolimus d4,2×C13: Q1: 981.7 Da Q3: 914.7 Da CE 25 V • sirolimus: Q1: 931.7 Da Q3: 864.6 Da CE 25 V • tacrolimus: Q1: 821.5 Da Q3: 576.4 Da CE 33 V • ascomycin: Q1: 809.5 Da Q3: 564.4 Da CE 33 V

[2] = known from literature; cited from earlier work
[3] = cited from earlier work
[4] = Real-time stability study of everolimus in hemolysate with NaN3 as additive; format: physicochemical; conditions: hemolysate with 0.009% sodium azide
[5] = Real-time stability (RTS) of everolimus in chlorhexidine-containing cell-free blood hemolysate, LC-MS/MS; format: physicochemical; conditions: for everolimus concentration: hemolysate with 0.024% chlorhexidine
Description: as §1
For checking the RTS, the chlorhexidine-containing hemolysate was spiked from a highly concentrated stock solution of everolimus to approx. 100 ng/ml, and aliquots thereof were stressed at 6° C. for 3, 6, 9, 12, and 15 months respectively in brown LC-MS vials. The stressed samples and the corresponding non-stressed samples (T0 samples) were analyzed by LC-MS/MS measurements.
LC-MS/MS method: Before performing the LC-MS/MS analysis, the samples were treated by addition of 10 μL isotope-labeled internal standards (d4/2×C13—everolimus) to 100 μL of the sample to be analyzed, followed by a protein precipitation by addition of 150 μL acetonitrile. The mixture was incubated at 4° C. for 60 minutes and then centrifuged (18000 g, 4° C., 30 min). The supernatant was diluted 1:4 with a solvent mixture of 30% acetonitrile and 70% water and then injected in the LC-MS/MS. The samples were quantified by an external calibration curve. The calibrator was a set of solutions with different concentrations of analyte and they were run through the same preparation workflow, with the same internal standard as the samples. For the calculation of the concentration in a sample, the response factors (ratio of analyte peak area and internal standard peak area) of the sample were referenced with the linear function of the calibration curve (ratio by concentration). The recovery value was the concentration measured at time point (Ti) compared to the non-stressed concentration at start time point (T0) as reference (see Table 3). Formulations with recoveries >90% were classified as stable.
LC-MS/MS conditions were • Solvents: A: 0.5 mM NH4Acetate in H2O/B: Methanol • Gradient: according to Table 2. • AB Sciex 6500 QTRAP/Agilent HPLC 1290-Infinity • APCI source negative mode • Column: Phenomenex—Kinetex F5, 2.6 μm particle, 150 mm×2.1 mm • Temperature: 50° C. (Column) and 8° C. (Autosampler) • Injection volume 20 μL • Calibration: external, with 6 concentration levels covering 0-500 ng/mL • MRM Transition at DP: −76 V EP: −10 V CE: −30 V CXP: −24 V • Detection: everolimus: Q1: 956.6 Da Q3: 590.2 Da; everolimus d4,2×C13: Q1: 962.2 Da Q3: 590.2 Da.

Structure (SMILES): CO[C@H]1C[C@@H]2CC[C@@H](C)[C@@](O)(O2)C(=O)C(=O)N2CCCC[C@H]2C(=O)O[C@H]([C@H](C)C[C@@H]2CC[C@@H](O)[C@H](OC)C2)CC(=O)[C@H](C)/C=C(\C)[C@@H](O)[C@@H](OC)C(=O)[C@H](C)C[C@H](C)/C=C/C=C/C=C/1C [sirolimus, (1R,9S,12S,15R,16E,18R,19R,21R,23S,24E,26E,28E,30S,32S,35R)-1,18-dihydroxy-12-{(2R)-1-[(1S,3R,4R)-4-hydroxy-3-methoxycyclohexyl]-2-propanyl}-19,30-dimethoxy-15,17,21,23,29,35-hexamethyl-11,36-dioxa-4-azatricyclo hexatriaconta-16,24,26,28-tetraene-2,3,10,14,20-pentone]
- real-time stability demonstrated [1]: 3 months
- aqueous solubility [2]: poor
- Literature-provided stability of blood samples ([3]; 2-8° C., 4° C. (dark & in light)): 8d/4 °C
- Literature-provided stability of blood samples ([3]; 2-8° C., 4° C.): 7d/4 °C ^11
- Literature-provided stability of blood samples ([3]; <0° C., −20 to −80° C.): 1a/−20 to −80 °C ^3
- Literature-provided stability of blood samples ([3]; <0° C., −20° C.): 3m/−20 °C ^1 and 6m/−20 °C ^11
- Literature-provided stability of blood samples ([3]; >RT, 30° C. (dark & in light)): 8d/30 °C
- Literature-provided stability of blood samples ([3]; >RT, 30° C. (in light)): 7d/30 °C (in light) ^1
- Literature-provided stability of blood samples ([3]; RT): 1d/RT ^11 and 1d/RT ^3

Structure (SMILES): CO[C@H]1C[C@@H]2CC[C@@H](C)[C@@](O)(O2)C(=O)C(=O)N2CCCC[C@H]2C(=O)O[C@H]([C@H](C)C[C@@H]2CC[C@@H](OCCO)[C@H](OC)C2)CC(=O)[C@H](C)/C=C(\C)[C@@H](O)[C@@H](OC)C(=O)[C@H](C)C[C@H](C)/C=C/C=C/C=C/1C [everolimus, (1R,9S,12S,15R,16E,18R,19R,21R,23S,24E,26E,28E,30S,32S,35R)-1,18-dihydroxy-12-[(2R)-1-[(1S,3R,4R)-4-(2-hydroxyethoxy)-3-methoxycyclohexyl]propan-2-yl]-19,30-dimethoxy-15,17,21,23,29,35-hexamethyl-11,36-dioxa-4-azatricyclo hexatriaconta-16,24,26,28-tetraene-2,3,10,14,20-pentone]
- measured value for stressed everolimus (unit not given) ([4]; 3 months at 6° C.): 0.732
- measured value for stressed everolimus (unit not given) ([4]; T0): 0.781
- everolimus concentration ([5]; 3 months at 6° C.): 71.1 ng/mL
- everolimus concentration ([5]; 6 months at 6° C.): 81.8 ng/mL
- real-time stability demonstrated ([5]; 6° C., chlorhexidine-containing hemolysate formulation): 15 months
- everolimus concentration ([5]; 9 months at 6° C.): 74.6 ng/mL
- everolimus concentration ([5]; 12 months at 6° C.): 92.0 ng/mL
- everolimus concentration ([5]; 15 months at 6° C.): 77.8 ng/mL
- everolimus concentration ([5]; T0 (non-stressed), spiked approx. 100 ng/ml): 74.8 ng/mL
- aqueous solubility [2]: poor
- Literature-provided stability of blood samples ([3]; 2-8° C., 4° C.): 7d/4 °C ^11
- Literature-provided stability of blood samples ([3]; >RT, 30° C. (in light)): 7d/30 °C (in light) ^1
- Literature-provided stability of blood samples ([3]; RT (in light)): 6h/RT (in light) ^4

Structure (SMILES): C=CC[C@@H]1/C=C(\C)C[C@H](C)C[C@H](OC)[C@H]2O[C@@](O)(C(=O)C(=O)N3CCCC[C@H]3C(=O)O[C@H](/C(C)=C/[C@@H]3CC[C@@H](O)[C@H](OC)C3)[C@H](C)[C@@H](O)CC1=O)[C@H](C)C[C@@H]2OC [tacrolimus, (1R,9S,12S,13R,14S,17R,18E,21S,23S,24R,25S,27R)-1,14-dihydroxy-12-[(1E)-1-[(1R,3R,4R)-4-hydroxy-3-methoxycyclohexyl]prop-1-en-2-yl]-23,25-dimethoxy-13,19,21,27-tetramethyl-17-(prop-2-en-1-yl)-11,28-dioxa-4-azatricyclo octacos-18-ene-2,3,10,16-tetrone]
- Recovery value (area-ratio at T1 compared to T0) ([1]; 3 months at 6° C.): 98%
- area-ratio (analyte / internal standard) ([1]; 3 months at 6° C.): 0.972
- real-time stability demonstrated [1]: 3 months
- area-ratio (analyte / internal standard) ([1]; T0 (non-stressed), sirolimus approx. 100 ng/mL, tacrolimus approx. 135 ng/mL): 0.99
- Recovery value (area-ratio at T1 compared to T0) ([1]; T0 (reference)): 100%
- aqueous solubility [2]: poor
- Literature-provided stability of blood samples (in words) ([3]; 1d/RT): not stable ^9
- Literature-provided stability of blood samples ([3]; <0° C., −70° C.): 1a/−70 °C ^8
- Literature-provided stability of blood samples ([3]; >RT, 37° C.): 3d/37 °C ^7
- Literature-provided stability of blood samples ([3]; RT): 14d/RT ^8 and 7d/RT ^7
